Paper PMC4071600, “Amino Alcohols from the Ascidian Pseudodistoma sp” (Marine Drugs, 2014)

These compounds were tested against T1, Na^+/K^+-ATPase (assay: Na+/K+-ATPase inhibition assay (by reference)).
T1 construct: gene ATP1A1; with Sodium/potassium-transporting ATPase subunit beta-1
Format: biochemical
Text: Na+/K+-ATPase inhibition assay (by reference) on Na^+/K^+-ATPase
In the case of CCCCCCCCC/C=C/[C@H](O)[C@H](C)N [compound 1, (E)-2-aminotetradec-4-en-3-ol], the IC50 is reported as 62 µM. CCCCCCCC/C=C/C[C@H](O)[C@H](C)N [compound 2, Pseudoaminol B] gave an IC50 of 78.4 µM. With CCCCCCC/C=C/C=C/[C@H](O)[C@H](C)N [compound 3, Pseudoaminol C] the IC50 was > 200 µM. Work on CCCCCCCC/C=C/C[C@H](O)CN [compound 4, Pseudoaminol D] yielded an IC50 of 190 µM. CC/C=C\C/C=C\CC/C=C/C=C/[C@H](O)[C@H](C)N [compound 5, Pseudoaminol E] was tested, and the IC50 was 101 µM. In the case of CCCCCCCCC/C=C/[C@H](O)[C@H](C)NCC(=O)O [compound 6, Pseudoaminol F], the IC50 is reported as > 200 µM. In the case of CC/C=C\C/C=C\CC/C=C/C=C/[C@H](O)[C@H](C)NCC(=O)O [compound 7, Pseudoaminol G], the IC50 is reported as > 200 µM. With CCCCCCCCC/C=C/[C@@H]1OC(=O)N[C@H]1C [compound 8, Compound 8] the IC50 was 71.4 µM. With CCCCCCCCCCC[C@H](O)[C@H](C)N [compound 9, Compound 9] the IC50 was 46.8 µM. CCCCCCCCCCC[C@H](O)[C@H](C)NC(C)=O [compound 10, Compound 10] was tested, and the IC50 was 118 µM. Work on CCCCCCCCCCC[C@H](OC(=O)c1ccccc1)[C@H](C)NC(=O)c1ccccc1 [compound 12, Compound 12] yielded an IC50 of 108 µM. CCCCCCCCCCC[C@H](O)CN [compound 13, Compound 13] was tested, and the IC50 was 130 µM. In the case of CCCCCCCCCCC[C@H](O)CNC(C)=O [compound 14, Compound 14], the IC50 is reported as > 200 µM.
